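Exposure lasted 48 hours, with cells grown in 96-well plates and compounds tested at five concentrations. TGI marks complete inhibition of growth.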
Experiments:
Experiment in all cases: NCI-60 cell line screen, 48 h
OVCAR-5 ovarian = system: OVCAR-5 ovarian
NCI-H226 lung = system: NCI-H226 lung
SNB-75 CNS = system: SNB-75 CNS
HOP-92 NSCLC = system: HOP-92 NSCLC
UO-31 renal = system: UO-31 renal
IGROV1 ovarian = system: IGROV1 ovarian
NCI-H460 lung = system: NCI-H460 lung
MCF7 breast = system: MCF7 breast
MDA-MB-435 = system: MDA-MB-435
MDA-N = system: MDA-N
OVCAR-8 ovarian = system: OVCAR-8 ovarian
EKVX NSCLC = system: EKVX NSCLC
A498 renal = system: A498 renal
MOLT-4 leukemia = system: MOLT-4 leukemia
SW-620 colon = system: SW-620 colon
LOX IMVI melanoma = system: LOX IMVI melanoma
KM12 colon = system: KM12 colon
U251 CNS = system: U251 CNS
RXF 393 renal = system: RXF 393 renal
BT-549 breast = system: BT-549 breast
PC-3 prostate = system: PC-3 prostate
MALME-3M melanoma = system: MALME-3M melanoma
A549 NSCLC = system: A549 NSCLC
M14 melanoma = system: M14 melanoma
HT29 colon = system: HT29 colon
HS 578T breast = system: HS 578T breast
K-562 leukemia = system: K-562 leukemia
MDA-MB-231 breast = system: MDA-MB-231 breast
UACC-62 melanoma = system: UACC-62 melanoma
SF-268 CNS = system: SF-268 CNS
786-0 renal = system: 786-0 renal
HCT-116 colon = system: HCT-116 colon
OVCAR-3 ovarian = system: OVCAR-3 ovarian
SF-295 CNS = system: SF-295 CNS
DU-145 prostate = system: DU-145 prostate
SK-MEL-2 melanoma = system: SK-MEL-2 melanoma
CCRF-CEM leukemia = system: CCRF-CEM leukemia
SN12C renal = system: SN12C renal
HOP-62 NSCLC = system: HOP-62 NSCLC
HCT-15 colon = system: HCT-15 colon
TK-10 renal = system: TK-10 renal
T-47D breast = system: T-47D breast
NCI-H23 lung = system: NCI-H23 lung
HL-60(TB) leukemia = system: HL-60(TB) leukemia
SK-MEL-5 melanoma = system: SK-MEL-5 melanoma
SR leukemia = system: SR leukemia
SK-MEL-28 melanoma = system: SK-MEL-28 melanoma
UACC-257 melanoma = system: UACC-257 melanoma
SK-OV-3 ovarian = system: SK-OV-3 ovarian
SF-539 CNS = system: SF-539 CNS
ACHN renal = system: ACHN renal
SNB-19 CNS = system: SNB-19 CNS
OVCAR-4 ovarian = system: OVCAR-4 ovarian
NCI-H522 lung = system: NCI-H522 lung
NCI/ADR-RES ovarian = system: NCI/ADR-RES ovarian
CAKI-1 renal = system: CAKI-1 renal
HCC-2998 colon = system: HCC-2998 colon
RPMI-8226 leukemia = system: RPMI-8226 leukemia
COLO 205 colon = system: COLO 205 colon

## O=C(O)C1(C(O)c2ccccc2)SCCCS1 (stereo unspecified)
OVCAR-5 ovarian
  TGI: > 10 µM
NCI-H226 lung
  TGI: > 10 µM
SNB-75 CNS
  TGI: > 10 µM
HOP-92 NSCLC
  TGI: > 10 µM
UO-31 renal
  TGI: > 10 µM
IGROV1 ovarian
  TGI: > 10 µM
NCI-H460 lung
  TGI: > 10 µM
MCF7 breast
  TGI: > 10 µM
MDA-MB-435
  TGI: > 10 µM
MDA-N
  TGI: > 10 µM
OVCAR-8 ovarian
  TGI: > 10 µM
EKVX NSCLC
  TGI: > 10 µM
A498 renal
  TGI: > 10 µM
MOLT-4 leukemia
  TGI: > 10 µM
SW-620 colon
  TGI: > 10 µM
LOX IMVI melanoma
  TGI: > 10 µM
KM12 colon
  TGI: > 10 µM
U251 CNS
  TGI: > 10 µM
RXF 393 renal
  TGI: > 10 µM
BT-549 breast
  TGI: > 10 µM
PC-3 prostate
  TGI: > 10 µM
MALME-3M melanoma
  TGI: > 10 µM
A549 NSCLC
  TGI: > 10 µM
M14 melanoma
  TGI: > 10 µM
HT29 colon
  TGI: > 10 µM
HS 578T breast
  TGI: > 10 µM
K-562 leukemia
  TGI: > 10 µM
MDA-MB-231 breast
  TGI: > 10 µM
UACC-62 melanoma
  TGI: > 10 µM
SF-268 CNS
  TGI: > 10 µM
786-0 renal
  TGI: > 10 µM
HCT-116 colon
  TGI: > 10 µM
OVCAR-3 ovarian
  TGI: > 10 µM
SF-295 CNS
  TGI: > 10 µM
DU-145 prostate
  TGI: > 10 µM
SK-MEL-2 melanoma
  TGI: > 10 µM
CCRF-CEM leukemia
  TGI: > 10 µM
SN12C renal
  TGI: > 10 µM
HOP-62 NSCLC
  TGI: > 10 µM
HCT-15 colon
  TGI: > 10 µM
TK-10 renal
  TGI: > 10 µM
T-47D breast
  TGI: > 10 µM
NCI-H23 lung
  TGI: > 10 µM
HL-60(TB) leukemia
  TGI: > 10 µM
SK-MEL-5 melanoma
  TGI: > 10 µM
SR leukemia
  TGI: > 10 µM
SK-MEL-28 melanoma
  TGI: > 10 µM
UACC-257 melanoma
  TGI: > 10 µM
SK-OV-3 ovarian
  TGI: > 10 µM
SF-539 CNS
  TGI: > 10 µM
ACHN renal
  TGI: > 10 µM
SNB-19 CNS
  TGI: > 10 µM

## CC(=O)N1c2cc(N=NN(C)C)ccc2NC(=O)CC1C (stereo unspecified)
OVCAR-5 ovarian
  TGI: > 100 µM
NCI-H226 lung
  TGI: > 100 µM
SNB-75 CNS
  TGI: > 100 µM
OVCAR-4 ovarian
  TGI: > 100 µM
NCI-H522 lung
  TGI: > 100 µM
UO-31 renal
  TGI: > 100 µM
IGROV1 ovarian
  TGI: > 100 µM
NCI-H460 lung
  TGI: > 100 µM
MCF7 breast
  TGI: > 100 µM
MDA-MB-435
  TGI: > 100 µM
MDA-N
  TGI: > 100 µM
OVCAR-8 ovarian
  TGI: > 100 µM
EKVX NSCLC
  TGI: > 100 µM
NCI/ADR-RES ovarian
  TGI: > 100 µM
MOLT-4 leukemia
  TGI: > 100 µM
SW-620 colon
  TGI: > 100 µM
KM12 colon
  TGI: > 100 µM
U251 CNS
  TGI: > 100 µM
RXF 393 renal
  TGI: > 100 µM
BT-549 breast
  TGI: > 100 µM
CAKI-1 renal
  TGI: > 100 µM
PC-3 prostate
  TGI: > 100 µM
MALME-3M melanoma
  TGI: > 100 µM
HCC-2998 colon
  TGI: > 100 µM
A549 NSCLC
  TGI: > 100 µM
M14 melanoma
  TGI: > 100 µM
HT29 colon
  TGI: > 100 µM
HS 578T breast
  TGI: > 100 µM
K-562 leukemia
  TGI: > 100 µM
MDA-MB-231 breast
  TGI: > 100 µM
UACC-62 melanoma
  TGI: > 100 µM
SF-268 CNS
  TGI: > 100 µM
786-0 renal
  TGI: > 100 µM
HCT-116 colon
  TGI: > 100 µM
RPMI-8226 leukemia
  TGI: > 100 µM
OVCAR-3 ovarian
  TGI: > 100 µM
SF-295 CNS
  TGI: > 100 µM
DU-145 prostate
  TGI: > 100 µM
SK-MEL-2 melanoma
  TGI: > 100 µM
CCRF-CEM leukemia
  TGI: > 100 µM
COLO 205 colon
  TGI: > 100 µM
SN12C renal
  TGI: > 100 µM
HOP-62 NSCLC
  TGI: > 100 µM
HCT-15 colon
  TGI: > 100 µM
TK-10 renal
  TGI: > 100 µM
T-47D breast
  TGI: > 100 µM
NCI-H23 lung
  TGI: > 100 µM
HL-60(TB) leukemia
  TGI: > 100 µM
SK-MEL-5 melanoma
  TGI: > 100 µM
SK-MEL-28 melanoma
  TGI: > 100 µM
UACC-257 melanoma
  TGI: > 100 µM
SK-OV-3 ovarian
  TGI: > 100 µM
ACHN renal
  TGI: > 100 µM
SNB-19 CNS
  TGI: > 100 µM

Source: PubChem BioAssay (NCI)
